Test results published in patent US6013673A, “Naphthyloxy acetic acid derivatives” (Ono Pharmaceutical Co., Ltd., priority 1994, dated 2000).

Biological target: T1, prostanoide receptor subtype (mouse EP3 α) (Mus musculus, UniProt P30557)
T1 construct: expressed in transfected cells; host or cells: CHO cells (membrane fraction)
T1 sequence (P30557 1-365): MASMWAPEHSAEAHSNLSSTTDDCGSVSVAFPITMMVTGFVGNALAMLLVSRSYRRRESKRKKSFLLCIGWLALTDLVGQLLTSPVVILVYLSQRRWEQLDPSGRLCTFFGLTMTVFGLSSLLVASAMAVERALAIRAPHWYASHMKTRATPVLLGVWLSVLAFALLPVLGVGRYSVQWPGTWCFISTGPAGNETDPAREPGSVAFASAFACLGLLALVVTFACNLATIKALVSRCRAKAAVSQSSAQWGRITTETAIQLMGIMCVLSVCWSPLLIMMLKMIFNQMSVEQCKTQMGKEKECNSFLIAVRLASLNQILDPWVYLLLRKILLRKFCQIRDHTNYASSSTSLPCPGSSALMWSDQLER
Assay: Binding assay using expression cell of prostanoide receptor subtype ([3H]-PGE2 competition)
Settings: membrane fraction of CHO cells expressing mouse EP3 α; 2.5 nM [3H]-PGE2; 1 hour, room temperature; buffer pH6.0; Ki=IC50/(1+([C]/Kd)); read-out: Ki (dissociation constant)
Experimental: For example, in standard laboratory test, the effects of the compounds of the present invention were confirmed by inhibitory effect on binding PGE2 using expression cell of mouse receptor.
Binding Assay Using Expression Cell of Prostanoide Receptor Subtype
The preparation of membrane fraction was carried out according to the method of Sugimoto et al [J. Biol. Chem. 267, 6463-6466(1992)], using expression CHO cell of prostanoide receptor subtype (mouse EP3 α).
The standard assay mixture contained membrane fraction (0.5 mg/ml), [^3 H]-PGE2 in a final volume of […] was incubated for 1 hour at room temperature. The reaction was terminated by addition of 3 ml of ice-cold buffer. The mixture was rapidly filtered through a glass filter (GF/B). The radioactivity associated with the filter was measured by liquid scintillation counting.
Kd and Bmax values were determined from Scatchard plots [Ann. N.Y. Acad. Sci., 51, 660(1949)]. Non-specific binding was calculated as the bond in the presence of an excess ([…]) of unlabeled PGE2. In the experiment for competition of specific [^3 H]-PGE2 binding by the compounds of the present invention, [^3 H]-PGE2 was added at a concentration of 2.5 nM and the compounds of the present invention were at a concentration of 1 mM.
The following buffer was used in all reactions.
Buffer: 10 mM potassium phosphate (pH6.0), 1 mM EDTA, 10 mM MgCl2, 0.1 M NaCl
The dissociation constant (Ki) of each compound was calculated by the following equation.

Structure (SMILES)	Ki
CN(C)C(=O)COc1cccc2c(CCC(=O)NC(c3ccccc3)c3ccccc3)cccc12 [Example 4a, N,N-dimethyl-[5-(2-diphenylmethylaminocarbonylethyl)naphthyl-1-oxy]acetic Acid Amide]	200 nM
O=C(CCc1cccc2c(OCCO)cccc12)NC(c1ccccc1)c1ccccc1 [Example 3, 2-[5-(2-diphenylmethylaminocarbonylethyl)naphthyl-1-oxy]ethanol]	26 nM
O=C(O)COc1cccc2c(CCC(=O)NC(c3ccccc3)c3ccccc3)cccc12 [Example 2, [5-(2-diphenylmethylaminocarbonylethyl)naphthyl-1-oxy]acetic Acid]	11 nM
COC(=O)COc1cccc2c(CCC(=O)NC(c3ccccc3)c3ccccc3)cccc12 [Example 1, [5-(2-diphenylmethylaminocarbonylethyl)naphthyl-1-oxy]acetic Acid Methyl Ester]	5700 nM
O=C(O)COc1cccc2c(CCC(=O)NN(c3ccccc3)c3ccccc3)cccc12 [Example 2a, [5-[2-(3,3-diphenylcarbazoyl)ethyl]naphthyl-1-oxy]acetic Acid]	110 nM
C[C@H](NC(=O)CCc1cccc2c(OCC(=O)O)cccc12)c1ccccc1 [Example 2l, [5-[2-((1S)-1-phenylethyl)aminocarbonylethyl]naphthyl-1-oxy]acetic Acid]	890 nM
O=C(O)COc1cccc2c(CCNC(=O)C(c3ccccc3)c3ccccc3)cccc12 [Example 8, [5-[2-(diphenylmethylcarbonylamino)ethyl]naphthyl-1-oxy]acetic Acid]	68 nM
C[C@@H](NC(=O)CCc1cccc2c(OCC(=O)O)cccc12)c1ccccc1 [Example 2k, [5-[2-((1R)-1-phenylethyl)aminocarbonylethyl]naphthyl-1-oxy]acetic Acid]	830 nM
O=C(O)COc1cccc2c(CC(=O)NC(c3ccccc3)c3ccccc3)cccc12 [Example 2d, [5-(diphenylmethylaminocarbonylmethyl)naphthyl-1-oxy]acetic Acid]	50 nM
O=C(COc1cccc2c(CCC(=O)NC(c3ccccc3)c3ccccc3)cccc12)NCCO [Example 4b, N-(2-hydroxyethyl)-[5-(2-diphenylmethylaminocarbonylethyl)naphthyl-1-oxy]acetic Acid Amide]	1300 nM
NC(=O)COc1cccc2c(CCC(=O)NC(c3ccccc3)c3ccccc3)cccc12 [Example 4, [5-(2-diphenylmethylaminocarbonylethyl)naphthyl-1-oxy]acetic Acid Amide]	23 nM
